Source: patent publication US12624057B2, “Bisphosphonate quinolone conjugates and uses thereof” (BIOVINC, LLC, priority 2016, dated 2026)
Entries after “also recorded” stand apart in the source; their conditions may differ.

Assays:
Format in all cases: cell-based, Staphylococcus aureus
[1] = tested on: biofilms of S. aureus strain ATCC-6538; test: Preformed biofilms on HA discs, S. aureus; conditions: HA as substrate
Procedure: Antimicrobial susceptibility testing of BP-ciprofloxacin against preformed biofilms of S. aureus strain ATCC-6538 and P. aeruginosa strain ATCC-15442: Strains cultured on appropriate agar plates (Columbia agar plate for S. aureus; MacConkey agar plate for P. aeruginosa) were transferred to liquid microbiological media and incubated for 24 h/37° C. under aerobic conditions. After incubation, strains were diluted to the density of 1 MF. The microbial dilutions were introduced to wells of 24-well plates containing HA discs as a substrate, or simply to polystyrene wells where the bottom surface of the wells served as the substrate for biofilm development. Strains were incubated at 37° C. for 4 hrs. Next, the microbe-containing solutions were removed from the wells. The surfaces, HA discs and polystyrene plates, were gently rinsed to leave adhered cells and to remove planktonic or loosely-bound microbes. Surfaces prepared in this manner were immersed in fresh TSB medium containing 0.24-125 mg/L of BP-ciprofloxacin conjugate. After 24 hrs of incubation at 37° C. the surfaces were rinsed using physiological saline solution and transferred to 1 mL of 0.5% saponin (Sigma-Aldrich, St Louis, MO). The surfaces were vortex-mixed vigorously for 1 minute to detach cells. Subsequently, all microbial suspensions were diluted 10 to 10^9 times. Each dilution ([…]) was cultured on the appropriate stable medium (MacConkey, Columbia for P. aeruginosa and S. aureus, respectively) and incubated at 37-C for 24 hours. After this time, the microbial colonies were counted and the number of cells forming biofilm was assessed. Results were presented as the mean number of CFU per square millimeter surface±standard error of the mean. To estimate the exact surface area of HA discs, x-ray tomographic analysis was applied. For estimation of the area of test plate bottoms, the equation for circle area: πr2 was applied.
Antimicrobial susceptibility testing of 6 against preformed biofilms of S. aureus strain ATCC-6538 and P. aeruginosa strain ATCC-15442: Strains cultured on appropriate agar plates (Columbia agar plate for S. aureus; MacConkey agar plate for P. aeruginosa) were transferred to liquid microbiological media and incubated for 24 hrs/37° C. under aerobic conditions. After incubation, strains were diluted to the density of 1 MF. The microbial dilutions were introduced to wells of 24-well plates containing HA discs as a substrate, or simply to polystyrene wells where the bottom surface of the wells served as the substrate for biofilm development. Strains were incubated at 37° C. for 4 hrs. Next, the microbe-containing solutions were removed from the wells. The surfaces, HA discs and polystyrene plates, were gently rinsed to leave adhered cells and to remove planktonic or loosely-bound microbes. […] After 24 hrs of incubation at 37° C. the surfaces were rinsed using physiological saline solution and transferred to 1 mL of 0.5% saponin (Sigma-Aldrich, St Louis, MO). The surfaces were vortex-mixed vigorously for 1 minute to detach cells. Subsequently, all microbial suspensions were diluted 10-1 to 10-9 times. Each dilution ([…]) was cultured on the appropriate stable medium (MacConkey, Columbia for P. aeruginosa and S. aureus, respectively) and incubated at 37° C. for 24 hrs. After this time, the microbial colonies were counted and the number of cells forming biofilm was assessed. Results were presented as the mean number of CFU per square millimeter surface±standard error of the mean. To calculate the surface area of HA discs, x-ray tomographic analysis was applied. For estimation of the area of test plate bottoms, the equation for circle area: πr^2 was applied.

[2] = tested on: planktonic S. aureus clinical osteomyelitis strains (MSSA and MRSA); test: MIC by microdilution against planktonic clinical S. aureus strains; conditions: for antimicrobial activity / MIC against planktonic S. aureus (in words): microdilution, 24 h
Procedure: (§1) Subsequently, the plate was incubated for 24 h/37° C. in a shaker to obtain optimal conditions for microbial growth and to prevent bacteria from forming biofilms. After incubation, the absorbance was measured once again. The following control samples were established: negative control sample one: sterile medium without microbes; negative control sample two: sterile medium without microbes implemented with DMSO (dimethyl sulfoxide, Sigma-Aldritch) to final concentration of 1% (v/v); positive control sample one: medium+microbes with no compound tested; positive control sample two: medium+microbes with no compound tested but implemented with DMSO to final concentration of 1% (v/v). […] To assess relative number of cells, the following calculations were performed. […] Next, the relative number of cells subjected to incubation with tested compounds were counted as follows: […].
as §1, with “Evaluation of the MIC of tested compounds against planktonic forms of clinical staphylococcal strains analyzed: To assess the impact of parent antibiotic and conjugates on microbial growth, 100 μl of microbial solutions of density 1×10^5 CFU/ml were placed into wells of 96-well test plates together with appropriate concentrations of tested compounds. […] Subsequently,” for “Subsequently,”, “plates were” for “the plate was”, “hrs/37°” for “h/37°”, “Sigma-Aldrich)” for “Sigma-Aldritch)”
The occurrence of opacification or lack of opacification of media was proof of pathogen growth or lack of growth, respectively. Additionally, bacterial solutions were cultured on the appropriate stable medium. Growth or lack of growth of bacterial colonies together with above-mentioned results from liquid cultures served as confirmation of results obtained spectrophotometrically.

[3] = tested on: S. aureus ATCC6538 biofilms; test: Survival of S. aureus biofilm on pretreated, rinsed HA discs; conditions: pretreated HA discs
Procedure: HA discs incubated in DMSO or phosphate buffer served as control samples. Next, discs were rinsed 3 times with sterile water. After rinsing, 2 mL of 0.5 MF of. S. aureus ATCC6538 were introduced to wells containing HA discs as a substrate for biofilm development and biofilms were formed as before.

S. aureus 6538 = test: Preventative assay, HA spherules pretreated then inoculated with S. aureus
Procedure: Preventative ability of BP-ciprofloxacin conjugate to inhibit S. aureus 6538 adherence to HA spherules: Various BP-ciprofloxacin concentrations were introduced to HA powder (spherules) suspended in TSB microbiological medium. Solutions containing conjugate and HA spherules were introduced to wells of 24-well plates. Final concentrations of powder were 10 mg/1 mL, while final concentrations of the conjugate were 0.12-250 mg/L. Suspensions were left for 24 h/37° C./shaking. After 24 h, suspensions were removed from the wells and impulse-centrifuged to precipitate HA powder. Next, supernatant was very gently discarded and a fresh 1 mL of S. aureus of density 10^5 cfu/mL was introduced to the HA spherules. Subsequently, this solution was shaken, absorbance was measured using 580 nm wavelength and left for 24 h/37° C./shaking. After incubation absorbance was measured again and values from 0 hr and 24 hrs were compared to assess reduction of bacterial growth with regard to control sample one (bacterial suspension but no spherules) and control sample two (bacterial suspension+spherules but with no conjugate added). Additionally, solutions were impulse-centrifuged, supernatant was gently discarded, while bacteria-containing HA spherules were culture plated as before and quantitatively assessed. […]

O=C(O)c1cn(C2CC2)c2cc(N3CCN(C(=O)c4ccc(CC(P(=O)(O)O)P(=O)(O)O)cc4)CC3)c(F)cc2c1=O [Compound 11, 1-cyclopropyl-7-(4-(4-(2,2-diphosphonoethyl)benzoyl)piperazin-1-yl)-6-fluoro-4-oxo-1,4-dihydroquinoline-3-carboxylic acid]
bactericidal activity / reduction of CFUs against established biofilm (in words) [1]: insignificant; also recorded: No significant activity is observed at any concentration | concentration of 11 relative to 6 to achieve the same antibacterial effect ([2]; MIC assay, S. aureus strains): 2-64 × | antimicrobial activity / MIC against planktonic S. aureus (in words) [2]: weaker activity | antimicrobial activity / MIC against planktonic S. aureus (in words) ([2]; listed as BAC): very little effect on bacterial growth under any circumstances; also recorded: has lost most of the activity | ability to prevent biofilm formation on pretreated HA (in words) [3]: no significant antimicrobial activity | ability to prevent biofilm formation on pretreated HA (in words) ([3]; listed as BAC): did not inhibit the growth of biofilms on bone substitute even at very high concentrations | preventative antimicrobial activity on pretreated HA (in words) (S. aureus 6538): insignificant; also recorded: not detectable; also recorded: no antimicrobial activity is observed
